Measured values reported in patent US8058332B2, “Phosphorus-sulfur FR additives and polymer systems containing same” (priority 2006, dated 2011).

Assay type: physicochemical
Conditions: TGA, nitrogen 60 mL/min, heating rate 10° C./min, room temperature to 600° C.
Procedure: A useful indicator of thermal stability is a 5% weight loss temperature, which is measured by thermogravimetric analysis as follows: ˜10 milligrams of the phosphorus-sulfur FR additive is analyzed using a TA Instruments model Hi-Res TGA 2950 or equivalent device, with a 60 milliliters per minute (mL/min) flow of gaseous nitrogen and a heating rate of 10° C./min over a range of from room temperature (nominally 25° C.) to 600° C. The mass lost by the sample is monitored during the heating step, and the temperature at which the sample has lost 5% of its initial weight is designated the 5% weight loss temperature (5% WLT). This method provides a temperature at which a sample undergoes a cumulative weight loss of 5 wt %, based on initial sample weight. […] When it is to be used in a melt-processing operation with a combustible polymer, the phosphorus-sulfur FR additive should have a 5% WLT of at least 150° C.
With “2,2′,2″,2″′-[1,2,4,6-phenylenetetra(methylthio)]tetra[5,5-dimethyl-1,3,2-dioxaphosphorinane]-2,2′,2″,2″′-sulfide [Example 7]” the “5% WLT” value was 281 °C. With “2,2′-{1,4-phenylenebis[(dimethylsilanediyl)ethane-2,1-diylbicyclo[2.2.1]heptane-6,2-diylthio]}bis(5,5-dimethyl-1,3,2-dioxaphosphorinane) 2,2′-disulfide [Example 27]” the “5% WLT” value was 285 °C. In the case of CC1(C)COP(=S)(SC/C=C/CSP2(=S)OCC(C)(C)CO2)OC1 [Example 1, 2,2′-[2-butene-1,4-diylbis(methylthio)]bis[5,5-dimethyl-1,3,2-dioxaphosphorinane]-2,2′-disulfide], the “5% WLT” value was 241 °C. For CC1(C)COP(=S)(SCc2ccccc2CSP2(=S)OCC(C)(C)CO2)OC1 [Example 4, 2,2′-[1,2-phenylenebis(methylthio)]bis[5,5-dimethyl-1,3,2-dioxaphosphorinane]-2,2′-disulfide], the “5% WLT” value was 240 °C. With CC1(C)COP(=O)(SCc2ccccc2CSP2(=O)OCC(C)(C)CO2)OC1 [Example 5, 2,2′-[1,2-phenylenebis(methylthio)]bis[5,5-dimethyl-1,3,2-dioxaphosphorinane]-2,2′-dioxide] the “5% WLT” value was 247 °C. In the case of Cc1c(CSP2(=S)OCC(C)(C)CO2)c(C)c(CSP2(=S)OCC(C)(C)CO2)c(C)c1CSP1(=S)OCC(C)(C)CO1 [Example 8, 2,2′,2″-[2,4,6-trimethyl-1,3,5-phenylenetris(methylthio)]tris[5,5-dimethyl-1,3,2-dioxaphosphorinane]-2,2′,2″-disulfide], the “5% WLT” value was 283 °C. In the case of CC1(C)COP(=S)(SCP(=O)(CSP2(=S)OCC(C)(C)CO2)CSP2(=S)OCC(C)(C)CO2)OC1 [Example 16], the “5% WLT” value was 243 °C. For CC1(C)COP(=S)(Sc2nc(SP3(=S)OCC(C)(C)CO3)nc(SP3(=S)OCC(C)(C)CO3)n2)OC1 [Example 17, 2,2′,2″-[s-triazine-2,4,6-tris(thio)]tris[(5,5-dimethyl-1,3,2-dioxaphosphorinane)-2,2′,2″-sulfide]], the “5% WLT” value was 249 °C. With CC1(C)COP(=S)(N(Cc2ccccc2)P2(=S)OCC(C)(C)CO2)OC1 [Example 18, N-benzyl-N-(5,5-dimethyl-2-sulfido-1,3,2-dioxaphosphorinan-2-yl)-5,5-dimethyl-1,3,2-dioxaphosphorinan-2-amine-2-sulfide] the “5% WLT” value was 202 °C. With CC1(C)COP(=S)(Cc2ccccc2CP2(=S)OCC(C)(C)CO2)OC1 [Example 19, [1,2-phenylenebis(methylene)]bis[5,5-dimethyl[1,3,2]dioxaphosphorinane]2,2′-disulfide] the “5% WLT” value was 284 °C. With CC1(C)COP(=S)(SCCCCSP2(=S)OCC(C)(C)CO2)OC1 [Example 20, 2,2′-[1,4-butylbis(methylthio)]bis[5,5-dimethyl-1,3,2-dioxaphosphorinane]-2,2′-disulfide] the “5% WLT” value was 244 °C. In the case of CC1(C)COP(=S)(SC2CC3CC2CC3SP2(=S)OCC(C)(C)CO2)OC1 (stereo not drawn) [Example 21, 2,2′-[bicyclo[2.2.1]heptane-2,5-diylbis(thio)]bis[5,5-dimethyl-1,3,2-dioxaphosphorinane]2,2′-disulfide], the “5% WLT” value was 264 °C. With CCOC(=O)CC(SP1(=S)OCC(C)(C)CO1)C(=O)OCC (stereo not drawn) [Example 23] the “5% WLT” value was 218 °C. With CC(CCCCCCC(C)SP1(=S)OCC(C)(C)CO1)SP1(=S)OCC(C)(C)CO1 (stereo not drawn) [Example 24, 2,2′-[decane-2,9-diylbis(thio)]bis(5,5-dimethyl-1,3,2-dioxaphosphorinane)2,2′-disulfide] the “5% WLT” value was 239 °C. With CC1(C)COP(=S)(SC(c2ccccc2)c2ccccc2)OC1 [Example 25, 2-[(diphenylmethyl)thio]-5,5-dimethyl-1,3,2-dioxaphosphorinane 2-sulfide] the “5% WLT” value was 238 °C. In the case of O=P1(SC/C=C/CSP2(=O)Oc3ccccc3-c3ccccc32)Oc2ccccc2-c2ccccc21 (stereo not drawn) [Example 26], the “5% WLT” value was 270 °C. In the case of CC1(C)COP(=O)(Cc2ccc(CSP3(=S)OCC(C)(C)CO3)cc2)OC1 [Example 28, 2-({4-[(5,5-dimethyl-2-oxido-1,3,2-dioxaphosphorinan-2-yl)methyl]benzyl}thio)-5,5-dimethyl-1,3,2-dioxaphosphorinane-2-sulfide], the “5% WLT” value was 257 °C. With O=P1(SCc2ccccc2CSP2(=O)Oc3ccccc3-c3ccccc32)Oc2ccccc2-c2ccccc21 (stereo not drawn) [Example 29, 6,6′-[1,2-phenylenebis(methylenethio)]bis(6H-dibenz[c, e][1,2]oxaphosphorin) 6,6′-dioxide] the “5% WLT” value was 262 °C. For Cc1c(CSP2(=O)Oc3ccccc3-c3ccccc32)c(C)c(CSP2(=O)Oc3ccccc3-c3ccccc32)c(C)c1CSP1(=O)Oc2ccccc2-c2ccccc21 (stereo not drawn) [Example 30, 6,6′,6″-[(2,4,6-trimethylbenzene-1,3,5-triyl)tris(methylenethio)]tris(6H-dibenzo-[c, e][1,2]oxaphosphorin) 6,6′,6″-trioxide], the “5% WLT” value was 219 °C. With CC(COCC(COCC(C)SP1(=S)OCC(C)(C)CO1)(COCC(C)SP1(=S)OCC(C)(C)CO1)COCC(C)SP1(=S)OCC(C)(C)CO1)SP1(=S)OCC(C)(C)CO1 (stereo not drawn) [Example 31] the “5% WLT” value was 241 °C. With CC1(C)COP(=S)(SCc2c(CSP3(=S)OCC(C)(C)CO3)c(CSP3(=S)OCC(C)(C)CO3)c(CSP3(=S)OCC(C)(C)CO3)c(CSP3(=S)OCC(C)(C)CO3)c2CSP2(=S)OCC(C)(C)CO2)OC1 [Example 33, 2,2′,2″,2″′,2″″′,2″″″-[benzene-1,2,3,4,5,6-hexaylhexakis(methylenethio)]hexakis(5,5-dimethyl-1,3,2-dioxaphosphorinane) 2,2′,2″,2″′,2′″″,2″″″-hexasulfide] the “5% WLT” value was 262 °C. In the case of CC1(C)COP(=S)(SCCC(=O)NCNC(=O)CCSP2(=S)OCC(C)(C)CO2)OC1 [Example 36], the “5% WLT” value was 220 °C. With CC1(C)COP(=S)(SC(c2ccccc2)c2cccc(C(SP3(=S)OCC(C)(C)CO3)c3ccccc3)c2)OC1 (stereo not drawn) [Example 37, 2,2′-{1,3-phenylenebis[(phenylmethylene)thio]}bis(5,5-dimethyl-1,3,2-dioxaphosphorinane) 2,2′-disulfide] the “5% WLT” value was 259 °C. For S=P1(CC(c2ccccc2)c2ccccc2)OCC2(CO1)COP(=S)(SC(c1ccccc1)c1ccccc1)OC2 (stereo not drawn) [Example 38], the “5% WLT” value was 240 °C.
